Reference: ChEMBL document CHEMBL3272309, “Potential central nervous system antitumor agents. Aziridinylbenzoquinones. 1” (J Med Chem, 1976)

Legend:
B16 [1] = experiment: Antitumor activity against mouse B16 cells allografted in mouse assessed as change in body weight at 0.78 mg/kg, ip qd administered from day 1 to 9 post ip tumor-implantation measured on day 5 relative to control; format: functional; conditions: route intraperitoneal
L1210 [2] = experiment: Antitumor activity against mouse L1210 cells allografted in mouse assessed as change in body weight at 12.5 mg/kg, ip qd administered from day 1 to 9 post ip tumor-implantation measured on day 5 relative to control; format: functional; conditions: route intraperitoneal
[3] = system: Lewis lung carcinoma cell line; experiment: Antitumor activity against mouse LLC cells allografted in mouse assessed as change in body weight at 1 mg/kg, ip qd administered from day 5 to 15 post sc tumor-implantation measured on day 5 relative to control; format: functional; conditions: route subcutaneous
P388 [4] = experiment: Antitumor activity against mouse P388 cells allografted in mouse assessed as mouse survival at 3.12 mg/kg, ip qd administered from day 1 to 9 post intracerebral tumor-implantation relative to control; format: functional; conditions: route intraperitoneal
[5] = Therapeutic ratio in ip dosed mouse allografted with mouse ependymoblastoma cells; format: ADME, organism-based; conditions: in vivo, read-out: TI
L1210 [6] = experiment: Antitumor activity against mouse L1210 cells allografted in mouse assessed as mouse survival at 3.12 mg/kg, ip qd administered from day 1 to 9 post ip tumor-implantation relative to control; format: functional; conditions: route intraperitoneal
P388 [7] = experiment: Antitumor activity against mouse P388 cells allografted in mouse assessed as mouse survival at 0.78 mg/kg, ip qd administered from day 1 to 9 post ip tumor-implantation relative to control; format: functional; conditions: route intraperitoneal
B16 [8] = experiment: Antitumor activity against mouse B16 cells allografted in mouse assessed as mouse survival at 3.12 mg/kg, ip qd administered from day 1 to 9 post ip tumor-implantation relative to control; format: functional; conditions: route intraperitoneal
B16 [9] = experiment: Antitumor activity against mouse B16 cells allografted in mouse assessed as mouse survival at 1.56 mg/kg, ip qd administered from day 1 to 9 post ip tumor-implantation relative to control; format: functional; conditions: route intraperitoneal
L1210 [10] = experiment: Antitumor activity against mouse L1210 cells allografted in mouse assessed as mouse survival at 0.78 mg/kg, ip qd administered from day 1 to 9 post intracerebral tumor-implantation relative to control; format: functional; conditions: route intraperitoneal
L1210 [11] = experiment: Antitumor activity against mouse L1210 cells allografted in mouse assessed as change in body weight at 4.6 mg/kg, ip qd administered from day 1 to 9 post ip tumor-implantation measured on day 5 relative to control; format: functional; conditions: route intraperitoneal
P388 [12] = experiment: Antitumor activity against mouse P388 cells allografted in mouse assessed as change in body weight at 0.78 mg/kg, ip qd administered from day 1 to 9 post intracerebral tumor-implantation measured on day 5 relative to control; format: functional; conditions: route intraperitoneal
P388 [13] = experiment: Antitumor activity against mouse P388 cells allografted in mouse assessed as change in body weight at 0.39 mg/kg, ip qd administered from day 1 to 9 post intracerebral tumor-implantation measured on day 5 relative to control; format: functional; conditions: route intraperitoneal
P388 [14] = experiment: Antitumor activity against mouse P388 cells allografted in mouse assessed as mouse survival at 0.39 mg/kg, ip qd administered from day 1 to 9 post intracerebral tumor-implantation relative to control; format: functional; conditions: route intraperitoneal
P388 [15] = experiment: Antitumor activity against mouse P388 cells allografted in mouse assessed as mouse survival at 3.12 mg/kg, ip qd administered from day 1 to 9 post ip tumor-implantation relative to control; format: functional; conditions: route intraperitoneal
L1210 [16] = experiment: Antitumor activity against mouse L1210 cells allografted in mouse assessed as change in body weight at 1.56 mg/kg, ip qd administered from day 1 to 9 post intracerebral tumor-implantation measured on day 5 relative to control; format: functional; conditions: route intraperitoneal
Mus musculus [17] = experiment: Toxicity in mouse allografted with mouse ependymoblastoma cells at 8 mg/kg, ip qd administered from day 1 to 5 post intracerebral tumor-implantation; format: organism-based; parameters: dose 8 mg/kg, route intraperitoneal; conditions: in vivo
[18] = system: Lewis lung carcinoma cell line; experiment: Antitumor activity against mouse LLC cells allografted in mouse assessed as mouse survival at 1 mg/kg, ip qd administered from day 5 to 15 post sc tumor-implantation relative to control; format: functional; conditions: route subcutaneous
[19] = Antitumor activity against mouse ependymoblastoma cells allografted in mouse assessed as mouse survival at 0.5 mg/kg, ip qd administered from day 1 to 5 post intracerebral tumor-implantation relative to control; format: functional; conditions: route intraperitoneal
L1210 [20] = experiment: Antitumor activity against mouse L1210 cells allografted in mouse assessed as mouse survival at 0.88 mg/kg, ip qd administered from day 1 to 9 post ip tumor-implantation relative to control; format: functional; conditions: route intraperitoneal
B16 [21] = experiment: Antitumor activity against mouse B16 cells allografted in mouse assessed as change in body weight at 3.12 mg/kg, ip qd administered from day 1 to 9 post ip tumor-implantation measured on day 5 relative to control; format: functional; conditions: route intraperitoneal
[22] = system: Lewis lung carcinoma cell line; experiment: Antitumor activity against mouse LLC cells allografted in mouse assessed as mouse survival at 2 mg/kg, ip qd administered from day 5 to 15 post sc tumor-implantation relative to control; format: functional; conditions: route subcutaneous
P388 [23] = experiment: Antitumor activity against mouse P388 cells allografted in mouse assessed as change in body weight at 3.12 mg/kg, ip qd administered from day 1 to 9 post intracerebral tumor-implantation measured on day 5 relative to control; format: functional; conditions: route intraperitoneal
[24] = system: Lewis lung carcinoma cell line; experiment: Antitumor activity against mouse LLC cells allografted in mouse assessed as change in body weight at 4 mg/kg, ip qd administered from day 5 to 15 post sc tumor-implantation measured on day 5 relative to control; format: functional; conditions: route subcutaneous
Mus musculus [25] = experiment: Toxicity in mouse allografted with mouse P388 cells at 6.25 mg/kg, ip qd administered from day 1 to 9 post ip tumor-implantation; format: organism-based; parameters: dose 6.25 mg/kg, route intraperitoneal; conditions: in vivo
B16 [26] = experiment: Antitumor activity against mouse B16 cells allografted in mouse assessed as change in body weight at 6.25 mg/kg, ip qd administered from day 1 to 9 post ip tumor-implantation measured on day 5 relative to control; format: functional; conditions: route intraperitoneal
L1210 [27] = experiment: Antitumor activity against mouse L1210 cells allografted in mouse assessed as mouse survival at 1.56 mg/kg, ip qd administered from day 1 to 9 post intracerebral tumor-implantation relative to control; format: functional; conditions: route intraperitoneal
[28] = Antitumor activity against mouse ependymoblastoma cells allografted in mouse assessed as mouse survival at 0.25 mg/kg, ip qd administered from day 1 to 5 post intracerebral tumor-implantation relative to control; format: functional; conditions: route intraperitoneal
P388 [29] = experiment: Antitumor activity against mouse P388 cells allografted in mouse assessed as change in body weight at 6.25 mg/kg, ip qd administered from day 1 to 9 post intracerebral tumor-implantation measured on day 5 relative to control; format: functional; conditions: route intraperitoneal
P388 [30] = experiment: Antitumor activity against mouse P388 cells allografted in mouse assessed as change in body weight at 1.56 mg/kg, ip qd administered from day 1 to 9 post intracerebral tumor-implantation measured on day 5 relative to control; format: functional; conditions: route intraperitoneal
L1210 [31] = experiment: Antitumor activity against mouse L1210 cells allografted in mouse assessed as mouse survival at 3.12 mg/kg, ip qd administered from day 1 to 9 post intracerebral tumor-implantation relative to control; format: functional; conditions: route intraperitoneal
L1210 [32] = experiment: Antitumor activity against mouse L1210 cells allografted in mouse assessed as change in body weight at 1.3 mg/kg, ip qd administered from day 1 to 9 post ip tumor-implantation measured on day 5 relative to control; format: functional; conditions: route intraperitoneal
L1210 [33] = experiment: Antitumor activity against mouse L1210 cells allografted in mouse assessed as change in body weight at 0.78 mg/kg, ip qd administered from day 1 to 9 post intracerebral tumor-implantation measured on day 5 relative to control; format: functional; conditions: route intraperitoneal

For `CCOC(=O)NC1=C(N2CC2)C(=O)C(NC(=O)OCC)=C(N2CC2)C1=O` [DIAZIQUONE], which Activity (B16 [1]) is on record?
Its Activity is -2.2 g.

What about the Activity (L1210 [2]) of the same molecule?
The Activity was -5 g.

What about the Activity [3] of the same molecule?
Its Activity is -0.1 g.

And the T/C (P388 [4])?
The T/C was 131%.

And the selectivity ratio [5]?
Its selectivity ratio is 4.

What about the T/C (L1210 [6]) of the same molecule?
The T/C was 128%.

What about the T/C (P388 [7]) of the same molecule?
The T/C was 199%.

What about the T/C (B16 [8]) of the same molecule?
The T/C was 143%.

What about the T/C (B16 [9]) of the same molecule?
Its T/C is 138%.

What about the T/C (L1210 [10]) of the same molecule?
The T/C was 103%.

What about the Activity (L1210 [11]) of the same molecule?
The Activity was -4.6 g.

And the Activity (P388 [12])?
Its Activity is -0.4 g.

What about the Activity (P388 [13]) of the same molecule?
The Activity was -0.7 g.

And the T/C (P388 [14])?
Its T/C is 102%.

And the T/C (P388 [15])?
The T/C was 100%.

What about the Activity (L1210 [16]) of the same molecule?
The Activity was -0.6 g.

And the Activity (Mus musculus [17])?
The Activity was “Toxic”.

What about the T/C [18] of the same molecule?
Its T/C is 89%.

And the T/C [19]?
The T/C was 162%.

And the T/C (L1210 [20])?
The T/C was 132%.

And the Activity (B16 [21])?
The Activity was -2.7 g.

And the T/C [22]?
The T/C was 134%.

And the Activity (P388 [23])?
Its Activity is -2.1 g.

What about the Activity [24] of the same molecule?
The Activity was -0.1 g.

What about the Activity (Mus musculus [25]) of the same molecule?
The Activity was “Toxic”.

What about the Activity (B16 [26]) of the same molecule?
Its Activity is -4.4 g.

What about the T/C (L1210 [27]) of the same molecule?
The T/C was 146%.

And the T/C [28]?
Its T/C is 130%.

What about the Activity (P388 [29]) of the same molecule?
The Activity was -2.8 g.

What about the Activity (P388 [30]) of the same molecule?
The Activity was -1.1 g.

And the T/C (L1210 [31])?
Its T/C is 179%.

What about the Activity (L1210 [32]) of the same molecule?
Its Activity is -2.3 g.

And the Activity (L1210 [33])?
The Activity was -0.5 g.
